Where “and” joins values, the source holds several entries; their conditions need not be identical. Identical values can stand only once.
Assay: xn = mol fraction of the nth substance listed
Settings: Fluid (supercritical or subcritical phases), Parallel plate method

CC [ethane] + O=C=O
Settings | thermal conductivity
291.06 K, Amount density=2940 mol/m3, x2 = 0.5 | 0.0276 W/m/K
291.06 K, Amount density=6960 mol/m3, x2 = 0.5 | 0.099 W/m/K
291.07 K, Amount density=5650 mol/m3, x2 = 0.5 | 0.0554 W/m/K
291.07 K, Amount density=7530 mol/m3, x2 = 0.5 | 0.114 W/m/K
291.08 K, Amount density=435 mol/m3, x2 = 0.5 | 0.0191 W/m/K
291.11 K, Amount density=6960 mol/m3, x2 = 0.5 | 0.104 W/m/K
291.17 K, Amount density=6960 mol/m3, x2 = 0.5 | 0.11 W/m/K
291.18 K, Amount density=6960 mol/m3, x2 = 0.5 | 0.108 W/m/K
291.2 K, Amount density=7530 mol/m3, x2 = 0.5 | 0.144 W/m/K
291.24 K, Amount density=7730 mol/m3, x2 = 0.5 | 0.151 W/m/K
291.26 K, Amount density=7530 mol/m3, x2 = 0.5 | 0.159 W/m/K
291.29 K, Amount density=7530 mol/m3, x2 = 0.5 | 0.158 W/m/K
291.32 K, Amount density=7530 mol/m3, x2 = 0.5 | 0.21 W/m/K
291.33 K, Amount density=7530 mol/m3, x2 = 0.5 | 0.206 W/m/K
291.34 K, Amount density=435 mol/m3, x2 = 0.5 | 0.0192 W/m/K
291.34 K, Amount density=2940 mol/m3, x2 = 0.5 | 0.0274 W/m/K
291.34 K, Amount density=6960 mol/m3, x2 = 0.5 | 0.11 W/m/K
291.34 K, Amount density=7730 mol/m3, x2 = 0.5 | 0.203 W/m/K
291.35 K, Amount density=5650 mol/m3, x2 = 0.5 | 0.0542 W/m/K
291.35 K, Amount density=6960 mol/m3, x2 = 0.5 | 0.111 W/m/K
291.35 K, Amount density=7530 mol/m3, x2 = 0.5 | 0.172 W/m/K
291.5 K, Amount density=435 mol/m3, x2 = 0.5 | 0.0192 W/m/K
291.55 K, Amount density=2940 mol/m3, x2 = 0.5 | 0.0274 W/m/K
291.55 K, Amount density=7730 mol/m3, x2 = 0.5 | 0.128 W/m/K
291.57 K, Amount density=5650 mol/m3, x2 = 0.5 | 0.0553 W/m/K
291.57 K, Amount density=7530 mol/m3, x2 = 0.5 | 0.139 W/m/K
292.05 K, Amount density=6960 mol/m3, x2 = 0.5 | 0.099 W/m/K and 0.0913 W/m/K
292.05 K, Amount density=7530 mol/m3, x2 = 0.5 | 0.106 W/m/K
292.05 K, Amount density=7730 mol/m3, x2 = 0.5 | 0.102 W/m/K
292.08 K, Amount density=435 mol/m3, x2 = 0.5 | 0.0192 W/m/K
292.09 K, Amount density=5650 mol/m3, x2 = 0.5 | 0.0546 W/m/K
292.11 K, Amount density=2940 mol/m3, x2 = 0.5 | 0.0276 W/m/K
292.64 K, Amount density=6630 mol/m3, x2 = 0.74 | 0.0593 W/m/K
293.08 K, Amount density=6710 mol/m3, x2 = 0.26 | 0.0687 W/m/K
293.08 K, Amount density=7530 mol/m3, x2 = 0.5 | 0.0833 W/m/K
293.09 K, Amount density=6960 mol/m3, x2 = 0.5 | 0.0861 W/m/K
293.11 K, Amount density=7730 mol/m3, x2 = 0.5 | 0.0798 W/m/K
293.13 K, Amount density=2940 mol/m3, x2 = 0.5 | 0.0277 W/m/K
293.14 K, Amount density=5650 mol/m3, x2 = 0.5 | 0.052 W/m/K
293.15 K, Amount density=435 mol/m3, x2 = 0.5 | 0.0193 W/m/K
293.15 K, Amount density=877 mol/m3, x2 = 0.26 | 0.0213 W/m/K
293.15 K, Amount density=6630 mol/m3, x2 = 0.74 | 0.0578 W/m/K
293.15 K, Amount density=9120 mol/m3, x2 = 0.74 | 0.213 W/m/K
293.17 K, Amount density=9120 mol/m3, x2 = 0.74 | 0.16 W/m/K
293.24 K, Amount density=9120 mol/m3, x2 = 0.74 | 0.156 W/m/K
293.34 K, Amount density=9120 mol/m3, x2 = 0.74 | 0.135 W/m/K
293.53 K, Amount density=9120 mol/m3, x2 = 0.74 | 0.116 W/m/K
293.64 K, Amount density=3090 mol/m3, x2 = 0.26 | 0.0314 W/m/K
293.95 K, Amount density=9120 mol/m3, x2 = 0.74 | 0.101 W/m/K
294.32 K, Amount density=9120 mol/m3, x2 = 0.74 | 0.0842 W/m/K
294.72 K, Amount density=9120 mol/m3, x2 = 0.74 | 0.0824 W/m/K
294.96 K, Amount density=6710 mol/m3, x2 = 0.26 | 0.075 W/m/K
295.61 K, Amount density=7450 mol/m3, x2 = 0.25 | 0.0795 W/m/K
295.7 K, Amount density=6960 mol/m3, x2 = 0.5 | 0.0639 W/m/K
295.73 K, Amount density=6710 mol/m3, x2 = 0.26 | 0.0845 W/m/K
295.76 K, Amount density=7450 mol/m3, x2 = 0.25 | 0.0843 W/m/K
295.87 K, Amount density=7450 mol/m3, x2 = 0.25 | 0.0833 W/m/K
295.98 K, Amount density=7450 mol/m3, x2 = 0.25 | 0.0881 W/m/K
296.02 K, Amount density=7530 mol/m3, x2 = 0.5 | 0.0642 W/m/K
296.02 K, Amount density=7730 mol/m3, x2 = 0.5 | 0.0595 W/m/K
296.03 K, Amount density=9120 mol/m3, x2 = 0.74 | 0.0663 W/m/K
296.04 K, Amount density=5650 mol/m3, x2 = 0.5 | 0.047 W/m/K
296.05 K, Amount density=6630 mol/m3, x2 = 0.74 | 0.0507 W/m/K
296.05 K, Amount density=6710 mol/m3, x2 = 0.26 | 0.099 W/m/K and 0.101 W/m/K
296.06 K, Amount density=435 mol/m3, x2 = 0.5 | 0.0196 W/m/K
296.06 K, Amount density=6630 mol/m3, x2 = 0.74 | 0.0506 W/m/K
296.06 K, Amount density=8450 mol/m3, x2 = 0.25 | 0.112 W/m/K
296.07 K, Amount density=2940 mol/m3, x2 = 0.5 | 0.0278 W/m/K
296.07 K, Amount density=6960 mol/m3, x2 = 0.5 | 0.062 W/m/K
296.07 K, Amount density=7450 mol/m3, x2 = 0.25 | 0.0888 W/m/K
296.1 K, Amount density=6710 mol/m3, x2 = 0.26 | 0.0958 W/m/K
296.11 K, Amount density=8450 mol/m3, x2 = 0.25 | 0.11 W/m/K
296.12 K, Amount density=446 mol/m3, x2 = 0.25 | 0.0209 W/m/K
296.14 K, Amount density=2940 mol/m3, x2 = 0.25 | 0.0304 W/m/K
296.14 K, Amount density=10780 mol/m3, x2 = 0.25 | 0.0692 W/m/K
296.18 K, Amount density=5680 mol/m3, x2 = 0.25 | 0.075 W/m/K
296.18 K, Amount density=7490 mol/m3, x2 = 0.25 | 0.0914 W/m/K
296.19 K, Amount density=5680 mol/m3, x2 = 0.25 | 0.0751 W/m/K
296.2 K, Amount density=6830 mol/m3, x2 = 0.25 | 0.0909 W/m/K
296.21 K, Amount density=8450 mol/m3, x2 = 0.25 | 0.107 W/m/K
296.22 K, Amount density=6830 mol/m3, x2 = 0.25 | 0.0855 W/m/K
296.22 K, Amount density=7450 mol/m3, x2 = 0.25 | 0.0888 W/m/K and 0.099 W/m/K
296.24 K, Amount density=2940 mol/m3, x2 = 0.25 | 0.0312 W/m/K
296.24 K, Amount density=6710 mol/m3, x2 = 0.26 | 0.118 W/m/K
296.29 K, Amount density=5680 mol/m3, x2 = 0.25 | 0.0757 W/m/K
296.31 K, Amount density=7490 mol/m3, x2 = 0.25 | 0.102 W/m/K
296.34 K, Amount density=6710 mol/m3, x2 = 0.26 | 0.159 W/m/K
296.34 K, Amount density=7490 mol/m3, x2 = 0.25 | 0.107 W/m/K
296.36 K, Amount density=6710 mol/m3, x2 = 0.26 | 0.166 W/m/K
296.38 K, Amount density=6710 mol/m3, x2 = 0.26 | 0.147 W/m/K and 0.193 W/m/K and 0.172 W/m/K
296.39 K, Amount density=6710 mol/m3, x2 = 0.26 | 0.166 W/m/K
296.4 K, Amount density=6710 mol/m3, x2 = 0.26 | 0.18 W/m/K
296.4 K, Amount density=7450 mol/m3, x2 = 0.25 | 0.124 W/m/K
296.4 K, Amount density=7490 mol/m3, x2 = 0.25 | 0.114 W/m/K
296.41 K, Amount density=7450 mol/m3, x2 = 0.25 | 0.117 W/m/K
296.44 K, Amount density=6710 mol/m3, x2 = 0.26 | 0.167 W/m/K
296.44 K, Amount density=7490 mol/m3, x2 = 0.25 | 0.124 W/m/K and 0.13 W/m/K
296.45 K, Amount density=5680 mol/m3, x2 = 0.25 | 0.0719 W/m/K
296.46 K, Amount density=6830 mol/m3, x2 = 0.25 | 0.102 W/m/K
296.52 K, Amount density=2940 mol/m3, x2 = 0.25 | 0.0308 W/m/K
296.52 K, Amount density=6710 mol/m3, x2 = 0.26 | 0.135 W/m/K
296.52 K, Amount density=7450 mol/m3, x2 = 0.25 | 0.131 W/m/K
296.54 K, Amount density=7490 mol/m3, x2 = 0.25 | 0.166 W/m/K
296.56 K, Amount density=446 mol/m3, x2 = 0.25 | 0.0209 W/m/K
296.58 K, Amount density=7450 mol/m3, x2 = 0.25 | 0.157 W/m/K
296.62 K, Amount density=7450 mol/m3, x2 = 0.25 | 0.184 W/m/K

— the NIST ThermoML archive (doi:10.1007/s10765-008-0482-1)
